# Target: T1, TACE (Homo sapiens, UniProt P78536)
# T1 construct: purchased Immunex
# Experiment: Procedure for Measuring TACE Inhibition (fluorescent peptidyl substrate)
# Assay type: biochemical
# Conditions: 1 mM
# Method: Using 96-well black microtiter plates, each well recieves a solution composed of 10 μL TACE (Immunex, final concentration 1 μg/mL), 70 μL Tris buffer, pH 7.4 containing 10% glycerol (final concentration 10 mM), and 10 μL of test compound solution in DMSO (final concentration, DMSO concentration <1%) and incubated for 10 minutes at room temperature. The reaction is initiated by addition of a fluorescent peptidyl substrate (final concentration 100 μM) to each well and then shaking on a shaker for 5 sec. The reaction is read (excitation 340 nm, emission 420 nm) for 10 min. and the increase in fluorescence over time is plotted as a linear line. The slope of the line is calculated and represents the reaction rate. […] The mean (x±sem) of the control rate is calculated and compared for statistical significance (p<0.05) with drug-treated rates using Dunnett's multiple comparison test.
# T1 sequence (P78536 215-824): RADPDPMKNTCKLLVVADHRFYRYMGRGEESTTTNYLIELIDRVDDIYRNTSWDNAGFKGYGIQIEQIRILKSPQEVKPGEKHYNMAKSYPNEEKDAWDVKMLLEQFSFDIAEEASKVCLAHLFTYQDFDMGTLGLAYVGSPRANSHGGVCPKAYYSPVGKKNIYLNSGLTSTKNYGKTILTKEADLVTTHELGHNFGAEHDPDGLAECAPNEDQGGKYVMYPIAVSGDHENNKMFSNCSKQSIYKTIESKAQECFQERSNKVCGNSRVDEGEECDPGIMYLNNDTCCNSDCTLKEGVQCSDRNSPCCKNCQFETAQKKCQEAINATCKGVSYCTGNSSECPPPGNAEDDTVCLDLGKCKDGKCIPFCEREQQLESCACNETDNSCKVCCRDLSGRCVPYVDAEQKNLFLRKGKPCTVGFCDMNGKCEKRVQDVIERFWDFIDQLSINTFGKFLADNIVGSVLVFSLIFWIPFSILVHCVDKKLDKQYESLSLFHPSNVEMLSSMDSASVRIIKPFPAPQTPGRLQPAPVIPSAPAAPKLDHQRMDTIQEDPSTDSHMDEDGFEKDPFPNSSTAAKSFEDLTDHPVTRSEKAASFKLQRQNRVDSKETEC
row,Molecule,TACE % inhibition at 1 mM [%]
1,3-(1-Hydroxycarbamoyl-heptylsulfinyl)-benzoicacid hydroxyamide [Example 188],16.2
2,"CCCCCCC(Sc1ccc(OCCCC)cc1)C(=O)NO (stereo not shown) [Example 200, 2-(4-Butoxy-benzenesulfanyl)-octanoic acid hydroxyamide]",37.9
3,"CCCCCCC(Sc1ccc(OCCN2CCNCC2)cc1)C(=O)NO (stereo not shown) [Example 201, 2-[4-(2-Piperazine-1-yl-ethoxy)-benzenesulfanyl]-octanoic acid hydroxyamide]",50.9
4,"CCCCCCC(Sc1ccc(NS(=O)(=O)CC)cc1)C(=O)NO (stereo not shown) [Example 234, Ethanesulfonic acid 4(1-hydroxycarbamoyl-heptylsulfanyl)-hydroxyamide]",18.4
5,"CCCCCCC(C(=O)NO)[S+]([O-])c1ccc(NS(=O)(=O)c2cc(Cl)sc2Cl)cc1 (stereo not shown) [Example 236, 2,5-Dichloro-thiophene-3-sulfonic acid 4-(1-hydroxycarbamoyl-heptylsulfinyl)-hydroxyamide]",35
6,(1-Hydroxycarbamoyl-propane-1-sulfanyl)-propionic acid hydroxyamide [Example 122],3.1
7,(1-Hydroxycarbamoyl-propane-1-sulfinyl)-acetic acid hydroxy amide [Example 121],6.1
8,(1-Hydroxycarbamoyl-propane-1-sulfonyl)-acetic acid hydroxyamide [Example 120],19.9

# Same assay, conditions: read-out: TACE IC 50
row,IC50 [nM],Molecule
1,47.5,"COc1ccc(S(=O)(=O)C(CC=C(C)C)(Cc2ccc(OCCN3CCOCC3)cc2)C(=O)NO)cc1 (stereo not shown) [Example 24, 2-(4-Methoxy-benzenesulfonyl)-5-methyl-2-[4-(2-morpholin-4-yl-ethoxy)-benzyl]-hex-4-enoic acid hydroxyamide]"
2,34.6,"COc1ccc(S(=O)(=O)C(C/C=C(\C)CCC=C(C)C)(Cc2ccc(OCCN3CCOCC3)cc2)C(=O)NO)cc1 (stereo not shown) [Example 26, (4E)-2-(4-Methoxy-benzenesulfonyl)-5,9 dimethyl-2-(4-(2-morpholin-4-yl-ethoxy)-benzyl]-deca-4,8-dienoic acid hydroxyamide]"
3,69.4,"CCCCCCC(Sc1nccn1C)C(=O)NO (stereo not shown) [Example 39, 2-(1-methyl-1H-imidazol-2-ylsulfanyl)-octanoic acid hydroxyamide]"
4,36.5,"CC(C)=CCC(CC=C(C)C)(C(=O)NO)S(=O)(=O)c1ccc(C)cc1 [Example 42, 5-Methyl-2-(3-methyl-but-2-enyl)-2-(toluene-4-sulfonyl)-hex-4-enoic acid hydroxyamide]"
5,71.9,"COc1ccc(S(=O)(=O)C2(C(=O)NO)CCN(Cc3ccc(Br)cc3)CC2)cc1 [Example 90, 1-(4Bromo-benzyl)-4-(4-methoxy-benzenesulfonyl)-piperidine-4-carboxylic acid hydroxyamide]"
6,9.7,"COc1ccc(S(=O)(=O)C2(C(=O)NO)CCN(C(C)(C)C)CC2)cc1 [Example 92, 1-Tert-butyl-4-(4-methoxy-benzenesulfonyl)-piperidine-4-carboxylic acid hydroxyamide]"
7,22.9,"COc1ccc(S(=O)(=O)C2(C(=O)NO)CCN(C3CCCCCCC3)CC2)cc1 [Example 94, 1-Cyclooctyl-4-(4-methoxy-benzenesulfonyl)-piperidine-4-carboxylic acid hydroxyamide]"
8,18.1,"COc1ccc(S(=O)(=O)C2(C(=O)NO)CCN(C(C)C)CC2)cc1 [Example 96, 1-Isopropyl-4-(4-methoxy-benzenesulfonyl)-piperidine-4-carboxylic acid hydroxyamide]"

# Same assay, conditions: solid phase compounds table
row,IC50 [nM],Molecule
1,930,"CCCCCCC(C(=O)NO)S(=O)(=O)c1ccc(OS(=O)(=O)c2ccccc2[N+](=O)[O-])cc1 (stereo not shown) [Example 238, 2-Nitro-benzenesulfonic acid 4-(1-hydroxycarbamoyl-heptylsulfonyl)-hydroxyamide]"

# Target: MMP 13 (Homo sapiens, UniProt P45452)
# Experiment: MMP 13 inhibition (HTS)
# Assay type: biochemical
# Conditions: 0.2 μM
row,MMP 13 % inhibition at 0.2 μM (HTS) [%],Molecule
1,71,"COC(=O)CCC(Sc1ccc(SC)cc1)C(=O)NO (stereo not shown) [Example 131, 4-Hydroxycarbamoyl-4-(4-methanesulfanyl-phenylsulfanyl)-butyric acid methyl ester]"
2,29,"CCCCCCCCC(Sc1cccc(OC)c1)C(=O)NO (stereo not shown) [Example 140, 2-(3-methoxy-benzenesulfanyl)decanoic acid hydroxamide]"
3,32,"CCCCCCCCC(C(=O)NO)[S+]([O-])c1cccc(OC)c1 (stereo not shown) [Example 141, 2-(3-Methoxy-benzenesulfinyl)decanoic acid hydroxamide]"
4,69,"CCCCCCCCC(C(=O)NO)S(=O)(=O)c1cccc(OC)c1 (stereo not shown) [Example 142, 2-(3-Methoxy-benzenesulfonyl)decanoic acid hydroxamide]"
5,38,"CCCCCCCCC(C(=O)NO)[S+]([O-])c1ccc([S+](C)[O-])cc1 (stereo not shown) [Example 144, 2-(4-methanesulfinyl-benzenesulfinyl)decanoic acid hydroxamide]"
6,45,"CCCCCCCCC(C(=O)NO)S(=O)(=O)c1ccc(S(C)(=O)=O)cc1 (stereo not shown) [Example 145, 2-(4-methanesulfonyl-benzenesulfonyl)decanoic acid hydroxamide]"
7,68,"CSc1ccc(SC(COCc2ccccc2)C(=O)NO)cc1 (stereo not shown) [Example 146, 3-benzyloxy-N-hydroxy-2-(4-methanesulfanyl-benzenesulfanyl)-propionamide]"
8,19,"N=C(N)NCCCC(Sc1ccccc1Br)C(=O)NO (stereo not shown) [Example 157, 2-(2-Bromosulfanyl)-5-guanidino-pentanoic acid hydroxyamide]"
9,33,"N=C(N)NCCCC(C(=O)NO)[S+]([O-])c1ccccc1Br (stereo not shown) [Example 158, 2-(2-Bromosulfinyl)-5-guanidino-pentanoic acid hydroxyamide]"

row,Molecule,MMP 13 % inhibition at 0.2 μM (HTS) [%]
1,"O=C(NO)C(Cc1cnc[nH]1)Sc1ccccc1Br (stereo not shown) [Example 152, 2-(2-bromo-benzenesulfanyl)-N-hydroxy-3-(3H-imidazol-4-yl)-propionamide]",9

# System: not given
# Experiment: not given
# Conditions: not given
row,melting point [°C],Molecule
1,125,"CCCCCCC(Sc1nccn1C)C(=O)NO (stereo not shown) [Example 39, 2-(1-methyl-1H-imidazol-2-ylsulfanyl)-octanoic acid hydroxyamide]"
2,108 to 110,"CC(C)=CCC(CC=C(C)C)(C(=O)NO)S(=O)(=O)c1ccc(C)cc1 [Example 42, 5-Methyl-2-(3-methyl-but-2-enyl)-2-(toluene-4-sulfonyl)-hex-4-enoic acid hydroxyamide]"
3,180,"COc1ccc(S(=O)(=O)C2(C(=O)NO)CCN(Cc3ccc(Br)cc3)CC2)cc1 [Example 90, 1-(4Bromo-benzyl)-4-(4-methoxy-benzenesulfonyl)-piperidine-4-carboxylic acid hydroxyamide]"
4,40,"COc1ccc(S(=O)(=O)C2(C(=O)NO)CCN(C(C)(C)C)CC2)cc1 [Example 92, 1-Tert-butyl-4-(4-methoxy-benzenesulfonyl)-piperidine-4-carboxylic acid hydroxyamide]"
5,> 200,"COc1ccc(S(=O)(=O)C2(C(=O)NO)CCN(C3CCCCCCC3)CC2)cc1 [Example 94, 1-Cyclooctyl-4-(4-methoxy-benzenesulfonyl)-piperidine-4-carboxylic acid hydroxyamide]"
6,75,"COc1ccc(S(=O)(=O)C2(C(=O)NO)CCN(C(C)C)CC2)cc1 [Example 96, 1-Isopropyl-4-(4-methoxy-benzenesulfonyl)-piperidine-4-carboxylic acid hydroxyamide]"
7,101,"COc1ccc(S(=O)(=O)C2(C(=O)NO)CCN(CCCOc3ccccc3)CC2)cc1 [Example 105, 4-(4-Methoxy-benzenesulfonyl)-1-(3-phenoxy-propyl)-piperidine-4-carboxylic acid hydroxyamide]"

row,Molecule,melting point [°C]
1,"CCCCOc1ccc(S(=O)(=O)C2(C(=O)NO)CCN(Cc3ccccc3)CC2)cc1 [Example 98, 1-Benzyl-4-(4-butoxy-benzenesulfonyl)-piperidine-4-carboxylic acid hydroxyamide]",144
2,"CCCCOc1ccc(S(=O)(=O)C2(C(=O)NO)CCN(Cc3ccc(F)cc3)CC2)cc1 [Example 100, 1-(4-Fluoro-benzyl)-4-(4-butoxy-benzenesulfonyl)-piperidine-4-carboxylic acid hydroxyamide]",112
3,"CCCCOc1ccc(S(=O)(=O)C2(C(=O)NO)CCN(CCCOc3ccccc3)CC2)cc1 [Example 106, 4-(4-n-Butoxy-benzenesulfonyl)-1-(3-phenoxy-propyl)-piperidine-4-carboxylic acid hydroxyamide]",84

# — patent US6342508B1, “N-hydroxy-2-(Alkyl,Aryl or Heteroaryl sulfanyl, sulfinyl or sulfonyl) 3-substituted alkyl, aryl or heteroarylamides as matrix metalloproteinase inhibitors” (American Cyanamid Company, priority 1997, dated 2002)
